According to article doi:10.1101/2020.03.06.976563v1 (biorxiv, 2020):
Where two headings read alike, the source gives them in different places.

Tests used:
[1] = target: T1, cyclin G associated kinase (GAK), kinase domain (Homo sapiens, UniProt O14976); assay: biochemical
T1 sequence (O14976 12-347 limits assumed): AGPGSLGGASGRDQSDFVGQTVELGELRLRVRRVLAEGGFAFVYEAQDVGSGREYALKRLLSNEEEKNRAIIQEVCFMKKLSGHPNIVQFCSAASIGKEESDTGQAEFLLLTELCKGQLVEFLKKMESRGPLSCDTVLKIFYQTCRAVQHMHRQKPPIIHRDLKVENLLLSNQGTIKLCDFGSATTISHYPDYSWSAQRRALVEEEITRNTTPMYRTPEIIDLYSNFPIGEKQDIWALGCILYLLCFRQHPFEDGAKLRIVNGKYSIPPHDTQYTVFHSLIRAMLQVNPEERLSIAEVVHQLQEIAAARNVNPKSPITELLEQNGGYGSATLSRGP

AAK1 [2] = target: T2, AAK1 (Homo sapiens, UniProt Q2M2I8); assay: biochemical
BMP2K [3] = target: T3, BMP2K (Homo sapiens, UniProt Q9NSY1); assay: biochemical
STK16 [4] = target: T4, STK16 (Homo sapiens, UniProt O75716); assay: biochemical
[5] = target: T1, cyclin G associated kinase (GAK), kinase domain; assay: biochemical; remark: listed apart in the source
AAK1 [6] = target: T2, AAK1; assay: biochemical; remark: listed apart in the source
BMP2K [7] = target: T3, BMP2K; assay: biochemical; remark: listed apart in the source
STK16 [8] = target: T4, STK16; assay: biochemical; remark: listed apart in the source
[9] = target: T1, cyclin G associated kinase (GAK), kinase domain; assay: TR-FRET ligand binding displacement assay, 16-point dose response

T4 sequence (O75716 whole entry, the tested form may be a part): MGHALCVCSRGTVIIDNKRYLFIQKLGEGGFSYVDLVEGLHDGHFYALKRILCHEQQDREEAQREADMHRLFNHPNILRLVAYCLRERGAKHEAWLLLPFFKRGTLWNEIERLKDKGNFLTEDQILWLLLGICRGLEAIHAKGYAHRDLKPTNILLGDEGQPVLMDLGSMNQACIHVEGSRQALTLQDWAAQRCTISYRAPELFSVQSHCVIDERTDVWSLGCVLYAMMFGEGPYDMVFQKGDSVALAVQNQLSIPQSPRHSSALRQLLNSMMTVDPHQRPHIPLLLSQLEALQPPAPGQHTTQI
T2 sequence (Q2M2I8 whole entry): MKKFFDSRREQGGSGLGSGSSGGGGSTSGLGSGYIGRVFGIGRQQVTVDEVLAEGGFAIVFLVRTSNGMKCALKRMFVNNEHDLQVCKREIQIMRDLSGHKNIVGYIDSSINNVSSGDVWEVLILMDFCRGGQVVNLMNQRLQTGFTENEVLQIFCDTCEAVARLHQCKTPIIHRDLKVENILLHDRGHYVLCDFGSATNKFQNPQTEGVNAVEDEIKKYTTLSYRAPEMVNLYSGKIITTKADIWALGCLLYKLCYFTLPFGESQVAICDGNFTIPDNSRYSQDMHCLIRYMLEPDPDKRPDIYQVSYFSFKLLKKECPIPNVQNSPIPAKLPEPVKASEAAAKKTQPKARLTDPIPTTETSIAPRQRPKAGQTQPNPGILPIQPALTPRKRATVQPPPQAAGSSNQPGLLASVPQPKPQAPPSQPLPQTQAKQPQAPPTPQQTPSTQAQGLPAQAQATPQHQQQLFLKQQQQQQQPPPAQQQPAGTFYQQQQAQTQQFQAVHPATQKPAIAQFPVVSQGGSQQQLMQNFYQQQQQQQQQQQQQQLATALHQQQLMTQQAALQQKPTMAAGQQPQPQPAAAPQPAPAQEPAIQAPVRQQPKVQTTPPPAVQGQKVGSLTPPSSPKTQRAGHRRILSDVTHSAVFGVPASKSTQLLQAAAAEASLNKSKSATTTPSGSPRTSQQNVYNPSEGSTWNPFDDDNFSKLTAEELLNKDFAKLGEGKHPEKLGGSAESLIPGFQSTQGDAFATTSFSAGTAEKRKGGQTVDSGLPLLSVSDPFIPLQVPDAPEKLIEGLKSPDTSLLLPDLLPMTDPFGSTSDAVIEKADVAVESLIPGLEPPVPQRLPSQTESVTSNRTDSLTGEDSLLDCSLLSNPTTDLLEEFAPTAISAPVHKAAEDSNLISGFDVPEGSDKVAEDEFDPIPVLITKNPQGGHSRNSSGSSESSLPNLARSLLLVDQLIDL
T3 sequence (Q9NSY1 whole entry): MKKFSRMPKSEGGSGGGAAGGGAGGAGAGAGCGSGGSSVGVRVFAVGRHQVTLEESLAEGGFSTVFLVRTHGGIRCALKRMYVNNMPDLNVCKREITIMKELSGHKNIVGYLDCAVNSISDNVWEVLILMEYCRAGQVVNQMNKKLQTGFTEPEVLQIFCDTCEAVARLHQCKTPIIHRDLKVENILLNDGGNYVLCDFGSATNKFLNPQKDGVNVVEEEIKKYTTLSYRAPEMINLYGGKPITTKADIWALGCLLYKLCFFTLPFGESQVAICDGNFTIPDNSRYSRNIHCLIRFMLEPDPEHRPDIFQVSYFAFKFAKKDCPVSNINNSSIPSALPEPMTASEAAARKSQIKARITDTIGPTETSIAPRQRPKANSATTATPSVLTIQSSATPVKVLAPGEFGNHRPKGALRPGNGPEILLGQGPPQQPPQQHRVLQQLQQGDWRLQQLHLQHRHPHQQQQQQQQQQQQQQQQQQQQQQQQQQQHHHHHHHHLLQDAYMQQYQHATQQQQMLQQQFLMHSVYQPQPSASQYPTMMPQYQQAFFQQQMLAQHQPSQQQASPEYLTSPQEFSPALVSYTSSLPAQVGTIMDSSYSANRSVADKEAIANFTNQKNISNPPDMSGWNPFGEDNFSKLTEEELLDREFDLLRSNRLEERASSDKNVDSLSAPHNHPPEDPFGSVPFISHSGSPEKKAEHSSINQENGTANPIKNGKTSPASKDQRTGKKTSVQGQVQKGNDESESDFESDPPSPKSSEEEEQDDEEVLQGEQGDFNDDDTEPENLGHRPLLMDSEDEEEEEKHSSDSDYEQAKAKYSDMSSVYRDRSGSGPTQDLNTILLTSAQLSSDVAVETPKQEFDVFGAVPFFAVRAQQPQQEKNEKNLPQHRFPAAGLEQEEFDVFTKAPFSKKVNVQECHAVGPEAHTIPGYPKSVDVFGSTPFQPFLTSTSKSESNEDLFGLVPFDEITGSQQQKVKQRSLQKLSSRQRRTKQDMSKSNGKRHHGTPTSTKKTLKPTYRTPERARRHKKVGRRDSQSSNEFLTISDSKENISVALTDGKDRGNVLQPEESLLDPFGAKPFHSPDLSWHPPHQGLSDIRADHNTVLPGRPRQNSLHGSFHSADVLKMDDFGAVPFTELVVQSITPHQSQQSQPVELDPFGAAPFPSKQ

SMILES: Oc1cccc(Nc2ccnc3ccccc23)c1 [compound 16, 3-(quinolin-4-ylamino)phenol]
- Ki [1]: 0.012 µM
- Ki (AAK1 [2]): 6.6 µM
- Ki (BMP2K [3]): 30 µM
- Ki (STK16 [4]): > 100 µM

SMILES: OCc1ccccc1Nc1ccnc2ccc(C(F)(F)F)cc12 [compound 12, (2-{[6-(trifluoromethyl)quinolin-4-yl]amino}phenyl)methanol]
- Ki [1]: 0.041 µM
- Ki (AAK1 [2]): 8.5 µM
- Ki (BMP2K [3]): 16 µM
- Ki (STK16 [4]): 5 µM

SMILES: COc1cccc(Nc2ccnc3ccccc23)c1 [compound 15, N-(3-methoxyphenyl)quinolin-4-amine]
- Ki [1]: 0.027 µM
- Ki (AAK1 [2]): 25 µM
- Ki (BMP2K [3]): > 100 µM
- Ki (STK16 [4]): > 100 µM

SMILES: OCc1cccc(Nc2ccnc3ccc(C(F)(F)F)cc23)c1 [compound 11, (3-{[6-(trifluoromethyl)quinolin-4-yl]amino}phenyl)methanol]
- Ki [1]: 0.06 µM
- Ki (AAK1 [2]): 10 µM
- Ki (BMP2K [3]): 15 µM
- Ki (STK16 [4]): 20 µM

SMILES: CC(C)(C)c1cccc(Nc2ccnc3ccc(Br)cc23)c1 [compound 34, 6-bromo-N-(3-tert-butylphenyl)quinolin-4-amine]
- Ki [5]: 2.6 µM
- Ki (AAK1 [6]): > 100 µM
- Ki (BMP2K [7]): > 100 µM
- Ki (STK16 [8]): > 100 µM

SMILES: Oc1cccc(Nc2ccnc3ccc(C(F)(F)F)cc23)c1 [compound 5, 3-((6-(trifluoromethyl)quinolin-4-yl)amino)phenol]
- Ki [1]: 0.0047 µM
- Ki (AAK1 [2]): 2.6 µM
- Ki (BMP2K [3]): 5.8 µM
- Ki (STK16 [4]): 3 µM

SMILES: COc1cccc(Nc2ccnc3ccc(S(C)(=O)=O)cc23)c1 [compound 19, 6-methanesulfonyl-N-(3-methoxyphenyl)quinolin-4-amine]
- Ki [1]: 0.03 µM
- Ki (AAK1 [2]): 23 µM
- Ki (BMP2K [3]): 19 µM
- Ki (STK16 [4]): > 100 µM

SMILES: O=[N+]([O-])c1cccc(Nc2ccnc3ccc(Br)cc23)c1 [compound 21, 6-bromo-N-(3-nitrophenyl)quinolin-4-amine]
- Ki [5]: 0.056 µM
- Ki (AAK1 [6]): 40 µM
- Ki (BMP2K [7]): > 100 µM
- Ki (STK16 [8]): > 100 µM

SMILES: COc1cccc(Nc2ccnc3ccc(OC)cc23)c1 [compound 17, 6-methoxy-N-(3-methoxyphenyl)quinolin-4-amine]
- Ki [1]: 0.0079 µM
- Ki (AAK1 [2]): 9.1 µM
- Ki (BMP2K [3]): 26 µM
- Ki (STK16 [4]): > 100 µM

SMILES: CC(C)(C)Oc1cccc(Nc2ccnc3ccc(Br)cc23)c1 [compound 33, 6-bromo-N-[3-(tert-butoxy)phenyl]quinolin-4-amine]
- Ki [5]: 2.2 µM
- Ki (AAK1 [6]): 15 µM
- Ki (BMP2K [7]): > 100 µM
- Ki (STK16 [8]): 12 µM

SMILES: CN(C)c1cccc(Nc2ccnc3ccc(C(F)(F)F)cc23)c1 [compound 8, ^1N,^1N-dimethyl-3-N-[6-(trifluoromethyl)quinolin-4-yl]benzene-1,3-diamine]
- Ki [9]: 0.65 µM
- Ki (AAK1 [2]): > 100 µM
- Ki (BMP2K [3]): > 100 µM
- Ki (STK16 [4]): 13 µM

SMILES: Brc1ccc2nccc(Nc3ccc4c(c3)OCO4)c2c1 [compound 25, N-(2H-1,3-benzodioxol-5-yl)-6-bromoquinolin-4-amine]
- Ki [5]: 0.035 µM
- Ki (AAK1 [6]): 5.2 µM
- Ki (BMP2K [7]): 12 µM
- Ki (STK16 [8]): 10 µM

SMILES: Brc1ccc2nccc(Nc3cccc4c3OCO4)c2c1 [compound 27, N-(Benzo[d][1,3]dioxol-4-yl)-6-bromoquinolin-4-amine]
- Ki (AAK1 [6]): > 100 µM
- Ki (BMP2K [7]): > 100 µM
- Ki (STK16 [8]): > 100 µM

SMILES: COc1cccc(Nc2ccnc3ccc(Br)cc23)c1 [compound 13, 6-bromo-N-(3-methoxyphenyl)quinolin-4-amine]
- Ki [5]: 0.0029 µM
- Ki (AAK1 [6]): 3 µM
- Ki (BMP2K [7]): 7 µM
- Ki (STK16 [8]): 32 µM

SMILES: FS(F)(F)(F)(F)c1cccc(Nc2ccnc3ccc(Br)cc23)c1 [compound 32, 6-bromo-N-(3-(pentafluoro-λ^6-sulfaneyl)phenyl)quinolin-4-amine]
- Ki [5]: 4.9 µM
- Ki (AAK1 [6]): > 100 µM
- Ki (BMP2K [7]): > 100 µM
- Ki (STK16 [8]): > 100 µM

SMILES: CN(C)c1cccc(Nc2ccnc3ccccc23)c1 [compound 10, N1 ,N1-dimethyl-N3-(quinolin-4-yl)benzene-1,3-diamine]
- Ki [1]: 0.97 µM
- Ki (AAK1 [2]): 29 µM
- Ki (BMP2K [3]): > 100 µM
- Ki (STK16 [4]): > 100 µM

SMILES: COc1cccc(Nc2ncnc3ccc(Br)cc23)c1 [compound 29, 6-bromo-N-(3-methoxyphenyl)quinazolin-4-amine]
- Ki [5]: 0.011 µM
- Ki (AAK1 [6]): 0.39 µM
- Ki (BMP2K [7]): 1.3 µM
- Ki (STK16 [8]): 5.5 µM

SMILES: COc1ccc2nccc(Nc3cccc(O)c3)c2c1 [compound 18, 3-((6-methoxyquinolin-4-yl)amino)phenol]
- Ki [1]: 0.0057 µM
- Ki (AAK1 [2]): 1.6 µM
- Ki (BMP2K [3]): 7.3 µM
- Ki (STK16 [4]): 27 µM

SMILES: Oc1cccc(Nc2ccnc3ccc(Br)cc23)c1 [compound 14, 3-((6-bromoquinolin-4-yl)amino)phenol]
- Ki [5]: 0.0012 µM
- Ki (AAK1 [6]): 0.5 µM
- Ki (BMP2K [7]): 2 µM
- Ki (STK16 [8]): 5.7 µM

SMILES: O=[N+]([O-])c1cccc(Nc2ccnc3ccc(C(F)(F)F)cc23)c1 [compound 6, N-(3-nitrophenyl)-6-(trifluoromethyl)quinolin-4-amine]
- Ki [1]: 0.21 µM
- Ki (AAK1 [2]): > 100 µM
- Ki (BMP2K [3]): > 100 µM
- Ki (STK16 [4]): > 100 µM
